Experimental data reported in ChEMBL document CHEMBL2440076, “New triarylpyrazoles as broad-spectrum anticancer agents: design, synthesis, and biological evaluation” (Eur J Med Chem, 2013).

Tests used:
HL-60(TB) = experiment: Growth inhibition of human HL-60(TB) cells assessed as cell growth at 10 uM after 48 hrs by sulforhodamine B assay; format: functional; conditions: HL-60, 48 h, read-out: Activity
HCT-116 [1] = experiment: Growth inhibition of human HCT116 cells after 48 hrs by sulforhodamine B assay; format: functional; conditions: HCT-116, 48 h
MCF7 = experiment: Growth inhibition of human MCF7 cells assessed as cell growth at 10 uM after 48 hrs by sulforhodamine B assay; format: functional; conditions: MCF7, 48 h, read-out: Activity
OVCAR-3 [2] = experiment: Growth inhibition of human OVCAR3 cells after 48 hrs by sulforhodamine B assay; format: functional, cell-based; conditions: OVCAR-3, 48 h
COLO 205 = experiment: Growth inhibition of human COLO205 cells assessed as cell growth at 10 uM after 48 hrs by sulforhodamine B assay; format: functional; conditions: COLO 205, 48 h, read-out: Activity
RXF 393 = experiment: Growth inhibition of human RXF393 cells assessed as cell growth at 10 uM after 48 hrs by sulforhodamine B assay; format: functional; conditions: RXF 393, 48 h, read-out: Activity
[3] = Growth inhibition of human NCI-ADR-RES cells assessed as cell growth at 10 uM after 48 hrs by sulforhodamine B assay; format: functional; conditions: read-out: Activity
NCI-H322M = experiment: Growth inhibition of human NCI-H322M cells after 48 hrs by sulforhodamine B assay; format: functional
SF-268 = experiment: Growth inhibition of human SF268 cells after 48 hrs by sulforhodamine B assay; format: functional; conditions: SF-268, 48 h
HCT-15 = experiment: Growth inhibition of human HCT15 cells assessed as cell growth at 10 uM after 48 hrs by sulforhodamine B assay; format: functional; conditions: HCT-15, 48 h, read-out: Activity
DU-145 = experiment: Growth inhibition of human DU145 cells after 48 hrs by sulforhodamine B assay; format: functional; conditions: DU-145, 48 h
MOLT-4 [4] = experiment: Growth inhibition of human MOLT4 cells assessed as cell growth at 10 uM after 48 hrs by sulforhodamine B assay; format: functional; conditions: MOLT-4, 48 h, read-out: Activity
[5] = Growth inhibition of human Hs 578T cells after 48 hrs by sulforhodamine B assay; format: functional
A549 = experiment: Growth inhibition of human A549/ATCC cells after 48 hrs by sulforhodamine B assay; format: functional; conditions: A549, 48 h
NCI-H226 [6] = experiment: Growth inhibition of human NCI-H226 cells assessed as cell growth at 10 uM after 48 hrs by sulforhodamine B assay; format: functional; conditions: NCI-H226, 48 h, read-out: Activity
UACC-257 = experiment: Growth inhibition of human UACC257 cells assessed as cell growth at 10 uM after 48 hrs by sulforhodamine B assay; format: functional; conditions: UACC-257, 48 h, read-out: Activity
HOP-92 = experiment: Growth inhibition of human HOP92 cells after 48 hrs by sulforhodamine B assay; format: functional, cell-based; conditions: HOP-92, 48 h
[7] = Growth inhibition of human NCI-ADR-RES cells after 48 hrs by sulforhodamine B assay; format: functional
SF-539 = experiment: Growth inhibition of human SF539 cells assessed as cell growth at 10 uM after 48 hrs by sulforhodamine B assay; format: functional; conditions: SF-539, 48 h, read-out: Activity
NCI-H522 = experiment: Growth inhibition of human NCI-H522 cells assessed as cell growth at 10 uM after 48 hrs by sulforhodamine B assay; format: functional; conditions: NCI-H522, 48 h, read-out: Activity
HCT-116 [8] = experiment: Growth inhibition of human HCT116 cells assessed as cell growth at 10 uM after 48 hrs by sulforhodamine B assay; format: functional; conditions: HCT-116, 48 h, read-out: Activity
[9] = Growth inhibition of human HCC2998 cells assessed as cell growth at 10 uM after 48 hrs by sulforhodamine B assay; format: functional; conditions: HCC 2998, 48 h, read-out: Activity
PC-3 = experiment: Growth inhibition of human PC3 cells after 48 hrs by sulforhodamine B assay; format: functional, cell-based; conditions: PC-3, 48 h
SN12C = experiment: Growth inhibition of human SN12C cells after 48 hrs by sulforhodamine B assay; format: functional
NCI-H460 [10] = experiment: Growth inhibition of human NCI-H460 cells after 48 hrs by sulforhodamine B assay; format: functional; conditions: NCI-H460, 48 h
SK-OV-3 = experiment: Growth inhibition of human SKOV3 cells after 48 hrs by sulforhodamine B assay; format: functional; conditions: SK-OV-3, 48 h
OVCAR-3 [11] = experiment: Growth inhibition of human OVCAR3 cells assessed as cell growth at 10 uM after 48 hrs by sulforhodamine B assay; format: functional; conditions: OVCAR-3, 48 h, read-out: Activity
MOLT-4 [12] = experiment: Growth inhibition of human MOLT4 cells after 48 hrs by sulforhodamine B assay; format: functional; conditions: MOLT-4, 48 h
NCI-H226 [13] = experiment: Growth inhibition of human NCI-H226 cells after 48 hrs by sulforhodamine B assay; format: functional; conditions: NCI-H226, 48 h
IGROV-1 = experiment: Growth inhibition of human IGROV1 cells assessed as cell growth at 10 uM after 48 hrs by sulforhodamine B assay; format: functional; conditions: IGROV-1, 48 h, read-out: Activity
NCI-H460 [14] = experiment: Growth inhibition of human NCI-H460 cells assessed as cell growth at 10 uM after 48 hrs by sulforhodamine B assay; format: functional; conditions: NCI-H460, 48 h, read-out: Activity
CCRF-CEM = experiment: Growth inhibition of human CCRF-CEM cells assessed as cell growth at 10 uM after 48 hrs by sulforhodamine B assay; format: functional; conditions: read-out: Activity
LOX IMVI = experiment: Growth inhibition of human LOXIMVI cells assessed as cell growth at 10 uM after 48 hrs by sulforhodamine B assay; format: functional; conditions: read-out: Activity
Malme-3M = experiment: Growth inhibition of human MALME-3M cells after 48 hrs by sulforhodamine B assay; format: functional
[15] = read-out: LC50 (the source's name)

COc1cc(-c2nn(-c3cccc(NC(=O)Nc4cccc(C(F)(F)F)c4)c3)cc2-c2ccncc2)ccc1Cl
growth at 10 µM (HL-60(TB)): -18.7%
GI50 (HCT-116 [1]): 900 nM
TGI (HCT-116 [1]): 7170 nM
CC50 (HCT-116 [1]; [15]): > 50000 nM
growth at 10 µM (MCF7): -6.3%
GI50 (OVCAR-3 [2]): 579 nM
IC50 (OVCAR-3 [2]): 580 nM
TGI (OVCAR-3 [2]): 1870 nM
CC50 (OVCAR-3 [2]; [15]): 24700 nM
growth at 10 µM (COLO 205): -88.9%
growth at 10 µM (RXF 393): -69.8%
growth at 10 µM [3]: -11.9%
GI50 (NCI-H322M): 1210 nM
TGI (NCI-H322M): 4730 nM
CC50 (NCI-H322M; [15]): > 50000 nM
GI50 (SF-268): 1360 nM
TGI (SF-268): 5430 nM
CC50 (SF-268; [15]): 50000 nM
growth at 10 µM (HCT-15): 5.28%
GI50 (DU-145): 1670 nM
LC50 (DU-145): > 50000 nM
TGI (DU-145): > 50000 nM
growth at 10 µM (MOLT-4 [4]): -26.3%
GI50 [5]: 1230 nM
TGI [5]: 12500 nM
CC50 [5, 15]: > 50000 nM
GI50 (A549): 794 nM
LC50 (concentration killing 50% of starting cells) (A549): > 50000 nM
TGI (A549): > 50000 nM
growth at 10 µM (NCI-H226 [6]): 4.3%
growth at 10 µM (UACC-257): -52.9%
GI50 (HOP-92): 557 nM
IC50 (HOP-92): 560 nM
LC50 (HOP-92): > 50000 nM
TGI (HOP-92): 1770 nM
GI50 [7]: 783 nM
TGI [7]: 3640 nM
CC50 [7, 15]: > 50000 nM
growth at 10 µM (SF-539): -34.2%
growth at 10 µM (NCI-H522): -30.8%
growth at 10 µM (HCT-116 [8]): 0.06%
growth at 10 µM [9]: -18.4%
GI50 (PC-3): 372 nM
IC50 (PC-3): 370 nM
TGI (PC-3): 2510 nM
CC50 (PC-3; [15]): > 50000 nM
GI50 (SN12C): 1400 nM
TGI (SN12C): 21900 nM
CC50 (SN12C; [15]): > 50000 nM
GI50 (NCI-H460 [10]): 763 nM
LC50 (NCI-H460 [10]): > 50000 nM
TGI (NCI-H460 [10]): 3530 nM
GI50 (SK-OV-3): 2020 nM
TGI (SK-OV-3): > 50000 nM
CC50 (SK-OV-3; [15]): > 50000 nM
growth at 10 µM (OVCAR-3 [11]): -42%
GI50 (MOLT-4 [12]): 936 nM
TGI (MOLT-4 [12]): 3480 nM
CC50 (MOLT-4 [12]; [15]): > 50000 nM
GI50 (NCI-H226 [13]): 1380 nM
TGI (NCI-H226 [13]): > 50000 nM
CC50 (NCI-H226 [13]; [15]): > 50000 nM
growth at 10 µM (IGROV-1): 14%
growth at 10 µM (NCI-H460 [14]): -7.91%
growth at 10 µM (CCRF-CEM): -9.68%
growth at 10 µM (LOX IMVI): -64.2%
GI50 (Malme-3M): 1050 nM
LC50 (concentration killing 50% of starting cells) (Malme-3M): 33900 nM
TGI (Malme-3M): 2410 nM
